# Laboratory results: US9540343B2 (Gilead Sciences, Inc., priority 2011, dated 2017)
# Columns and labels:
# [1] = system: HIV-IIIb; test: Test A: Antiviral assay in MT4 cells; format: cell-based, HIV-1; settings: MT-4 cells infected with HIV-IIIb, 5 days, CellTiter-Glo; for inhibition at 2 µM: Human immunodeficiency virus 1, IIIB, MT4, 120 h, read-out: % inhibition at 2 μM, percent inhibition of virus-induced cell killing, from dose response curve at 2 uM drug
# [2] = in vitro
# Summary of the method: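 Cytoprotection read-out: CellTiter-Glo chemiluminescence after 5 days at 37 °C of HIV-IIIb-infected MT-4 cells (m.o.i. 0.003) with compound in 10-point 3-fold dilutions, quadruplicate, 10% FBS. Cytotoxicity (CC50) measured identically without virus.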
# [3] = human, uninfected MT-4 cells, CC50 (nM), same protocol as Test A, CellTiter-Glo
SMILES,inhibition at 2 µM [1] [%],"CC50 at 5 days [2, 3] [nM]","% inhibition at 2 μM ([1]; percent inhibition of virus-induced cell killing, from dose response curve at 2 uM drug) [%]","CC50 at 5 days ([2]; human, CC50 (nM), uninfected MT-4 cells, same protocol as Test A, CellTiter-Glo) [nM]"
"NC(=O)c1cccc(-c2cccnc2[C@H](Cc2cc(F)cc(F)c2)NC(=O)Cc2ccccc2)c1 [Example 501, (S)-3-(2-(2-(3,5-difluorophenyl)-1-(2-phenylacetamido)ethyl)pyridin-3-yl)benzamide]",11,39600,,
"CC(C)(C)OC(=O)NCc1ccc2c(CC(=O)N[C@@H](Cc3cc(F)cc(F)c3)c3ncccc3-c3cccc(C(N)=O)c3)c[nH]c2c1 [Example 502F, (S)-tert-butyl (3-(2-(1-(3-(3-carbamoylphenyl)pyridin-2-yl)-2-(3,5-difluorophenyl)ethylamino)-2-oxoethyl)-1H-indol-6-yl)methylcarbamate]",50,3050,,
"CCC(C(=O)N[C@@H](Cc1cc(F)cc(F)c1)c1ncccc1-c1ccc(F)c(C(N)=O)c1)n1nc(C(F)(F)F)c2c1CCCC2 (stereo partly drawn) [Example 504E, 5-(2-((1S)-2-(3,5-difluorophenyl)-1-(2-(3-(trifluoromethyl)-4,5,6,7-tetrahydro-1H-indazol-1-yl)butanamido)ethyl)pyridin-3-yl)-2-fluorobenzamide]",,12800,142,
"NC(=O)c1cc(-c2cccnc2[C@H](Cc2cc(F)cc(F)c2)NC(=O)Cn2nc(C(F)F)cc2C(F)F)ccc1F [Example 505, (S)-5-(2-(1-(2-(3,5-bis(difluoromethyl)-1H-pyrazol-1-yl)acetamido)-2-(3,5-difluorophenyl)ethyl)pyridin-3-yl)-2-fluorobenzamide]",28,> 47400,,
"Cc1nn(CC(=O)N[C@@H](Cc2cc(F)cc(F)c2)c2ncccc2-c2cccc(C(N)=O)c2)c(C)c1C [Example 506, (S)-3-(2-(2-(3,5-difluorophenyl)-1-(2-(3,4,5-trimethyl-1H-pyrazol-1-yl)acetamido)ethyl)pyridin-3-yl)benzamide]",32,> 53000,,
"CC(C(=O)N[C@@H](Cc1cc(F)cc(F)c1)c1ncccc1-c1ccc(F)c(C(N)=O)c1)n1ccc(C(F)(F)F)n1 (stereo partly drawn) [Example 507B, 5-(2-((1S)-2-(3,5-difluorophenyl)-1-(2-(3-(trifluoromethyl)-1H-pyrazol-1-yl)propanamido)ethyl)pyridin-3-yl)-2-fluorobenzamide]",22,> 45300,,
"O=C(Cn1nc(C(F)F)c2c1C(F)(F)CCC2(F)F)N[C@@H](Cc1cc(F)cc(F)c1)c1ncccc1-c1ccc2c(c1)CNC2=O [Example 508D, (S)-2-(3-(difluoromethyl)-4,4,7,7-tetrafluoro-4,5,6,7-tetrahydro-1H-indazol-1-yl)-N-(2-(3,5-difluorophenyl)-1-(3-(1-oxoisoindolin-5-yl)pyridin-2-yl)ethyl)acetamide]",96,5130,,
"CCc1cccc2c(C(C)=O)cn(CC(=O)N[C@@H](Cc3cc(F)cc(F)c3)c3ncccc3-c3ccc(F)c(C(N)=O)c3)c12 [Example 509, (S)-5-(2-(1-(2-(3-acetyl-7-ethyl-1H-indol-1-yl)acetamido)-2-(3,5-difluorophenyl)ethyl)pyridin-3-yl)-2-fluorobenzamide]",48,,,24600
"NC(=O)c1cccc(-c2cccnc2[C@H](Cc2cc(F)cc(F)c2)NC(=O)Cc2cccc(Cl)c2)c1 [Example 510, (S)-3-(2-(1-(2-(3-chlorophenyl)acetamido)-2-(3,5-difluorophenyl)ethyl)pyridin-3-yl)benzamide]",3,35900,,
"CCC(C(=O)N[C@@H](Cc1cc(F)cc(F)c1)c1ncccc1-c1ccc(F)c(C(N)=O)c1)n1nc(C(F)(F)F)cc1C1CC1 (stereo partly drawn) [Example 511C, 5-(2-((1S)-1-(2-(5-cyclopropyl-3-(trifluoromethyl)-1H-pyrazol-1-yl)butanamido)-2-(3,5-difluorophenyl)ethyl)pyridin-3-yl)-2-fluorobenzamide]",17,11800,,
"O=C(Cn1nc(C(F)F)cc1C(F)F)N[C@@H](Cc1cc(F)cc(F)c1)c1ncccc1-c1cnc2[nH]ccc2c1 [Example 512C, (S)—N-(1-(3-(1H-pyrrolo[2,3-b]pyridin-5-yl)pyridin-2-yl)-2-(3,5-difluorophenyl)ethyl)-2-(3,5-bis(difluoromethyl)-1H-pyrazol-1-yl)acetamide]",60,19900,,
"O=C(Cc1c[nH]c2ccc(C(F)(F)F)cc12)N[C@@H](Cc1cc(F)cc(F)c1)c1ncccc1-c1ccc(Cl)cc1 [Example 513, (S)—N-(1-(3-(4-chlorophenyl)pyridin-2-yl)-2-(3,5-difluorophenyl)ethyl)-2-(5-(trifluoromethyl)-1H-indol-3-yl)acetamide]",63,10700,,
"NC(=O)c1cc(-c2cccnc2[C@H](Cc2cc(F)cc(F)c2)NC(=O)Cn2ccc3cnccc32)ccc1F [Example 514, (S)-5-(2-(1-(2-(1H-pyrrolo[3,2-c]pyridin-1-yl)acetamido)-2-(3,5-difluorophenyl)ethyl)pyridin-3-yl)-2-fluorobenzamide]",3,> 46100,,
"Cc1[nH]c2ccc(F)cc2c1CC(=O)N[C@@H](Cc1cc(F)cc(F)c1)c1ncccc1-c1cccc(C(N)=O)c1 [Example 517E, (S)-3-(2-(2-(3,5-difluorophenyl)-1-(2-(5-fluoro-2-methyl-1H-indol-3-yl)acetamido)ethyl)pyridin-3-yl)benzamide]",87,19100,,
"NC(=O)c1cc(-c2cccnc2[C@H](Cc2cc(F)cc(F)c2)NC(=O)Cn2cnc3cc(Cl)c(Cl)cc32)ccc1F [Example 518, (S)-5-(2-(1-(2-(5,6-dichloro-1H-benzo[d]imidazol-1-yl)acetamido)-2-(3,5-difluorophenyl)ethyl)pyridin-3-yl)-2-fluorobenzamide]",11,10500,,
"CC(C(=O)N[C@@H](Cc1cc(F)cc(F)c1)c1ncccc1-c1ccc(F)c(C(N)=O)c1)n1nc(C(F)(F)F)cc1C1CC1 (stereo partly drawn) [Example 519, 5-(2-((1S)-1-(2-(5-cyclopropyl-3-(trifluoromethyl)-1H-pyrazol-1-yl)propanamido)-2-(3,5-difluorophenyl)ethyl)pyridin-3-yl)-2-fluorobenzamide]",65,20300,,
"CC(C)c1cc(C(=O)NC2CC2)n(CC(=O)N[C@@H](Cc2cc(F)cc(F)c2)c2ncccc2-c2ccc(F)c(C(N)=O)c2)n1 [Example 520, (S)-1-(2-(1-(3-(3-carbamoyl-4-fluorophenyl)pyridin-2-yl)-2-(3,5-difluorophenyl)ethylamino)-2-oxoethyl)-N-cyclopropyl-3-isopropyl-1H-pyrazole-5-carboxamide]",30,> 53200,,
CC(C)c1cc(C(=O)O)nn1CC(=O)N[C@@H](Cc1cc(F)cc(F)c1)c1ncccc1-c1ccc(F)c(C(N)=O)c1 [Example 521],0,> 53200,,
"Cc1cc2c(ccn2CC(=O)N[C@@H](Cc2cc(F)cc(F)c2)c2ncccc2-c2ccc(F)c(C(N)=O)c2)cn1 [Example 522, (S)-5-(2-(2-(3,5-difluorophenyl)-1-(2-(6-methyl-1H-pyrrolo[3,2-c]pyridin-1-yl)acetamido)ethyl)pyridin-3-yl)-2-fluorobenzamide]",4,47900,,
"CNC(=O)c1nc2c(C)cccc2n1CC(=O)N[C@@H](Cc1cc(F)cc(F)c1)c1ncccc1-c1ccc(F)c(C(N)=O)c1 [Example 523, (S)-1-(2-(1-(3-(3-carbamoyl-4-fluorophenyl)pyridin-2-yl)-2-(3,5-difluorophenyl)ethylamino)-2-oxoethyl)-N,4-dimethyl-1H-benzo[d]imidazole-2-carboxamide]",24,48800,,
"O=C(Cn1nc(C(F)F)c2c1C(F)(F)CCC2(F)F)N[C@@H](Cc1cc(F)cc(F)c1)c1ncncc1-c1ccc(Cl)cc1 [Example 524D, (S)—N-(1-(5-(4-chlorophenyl)pyrimidin-4-yl)-2-(3,5-difluorophenyl)ethyl)-2-(3-(difluoromethyl)-4,4,7,7-tetrafluoro-4,5,6,7-tetrahydro-1H-indazol-1-yl)acetamide]",78,8530,,
"NC(=O)c1cc(-c2cccnc2[C@H](Cc2cc(F)cc(F)c2)NC(=O)Cn2nc(C(F)(F)F)c3c2CCC3O)ccc1F (stereo partly drawn) [Example 525, 5-(2-((1S)-2-(3,5-difluorophenyl)-1-(2-(4-hydroxy-3-(trifluoromethyl)-5,6-dihydrocyclopenta[c]pyrazol-1(4H)-yl)acetamido)ethyl)pyridin-3-yl)-2-fluorobenzamide]",83,> 53200,,
"CC(C)(C)OC(=O)NCc1ccc2c(CC(=O)N[C@@H](Cc3cc(F)cc(F)c3)c3ncccc3-c3ccc(Cl)cc3)c[nH]c2c1 [Example 526, (S)-tert-butyl (3-(2-(1-(3-(4-chlorophenyl)pyridin-2-yl)-2-(3,5-difluorophenyl)ethylamino)-2-oxoethyl)-1H-indol-6-yl)methylcarbamate]",50,10000,,
"NC(=O)c1cccc(-c2cccnc2[C@H](Cc2cc(F)cc(F)c2)NC(=O)Cc2c[nH]c3cc(C(F)(F)F)ccc23)c1 [Example 527E, (S)-3-(2-(2-(3,5-difluorophenyl)-1-(2-(6-(trifluoromethyl)-1H-indol-3-yl)acetamido)ethyl)pyridin-3-yl)benzamide]",66,10600,,
"O=C(Cn1nc(C(F)F)cc1C(F)F)N[C@@H](Cc1cc(F)cc(F)c1)c1ccccn1 [Example 528, (S)-2-(3,5-bis(difluoromethyl)-1H-pyrazol-1-yl)-N-(2-(3,5-difluorophenyl)-1-(pyridin-2-yl)ethyl)acetamide]",0,> 53200,,
